Patent publication US8148531B2 (Chroma Therapeutics Ltd., priority 2005, dated 2012)

Assays:
Format in all cases: cell-based
HUT cell line = assay: Cell inhibition assay (SRB cell viability), HUT; conditions: IC50 range class, 72 h, read-out: Inhibitor Activity vs HUT cell line
Method: (§1) The corresponding cancer cell lines (U937, HCT 116 and HUT) growing in log phase were harvested and seeded at 1000 cells/well (200 ul final volume) into 96-well tissue culture plates. Following 24 h of cell growth cells were treated with compounds (final concentration of 20 uM). Plates were then re-incubated for a further 72 h before a sulphorhodamine B (SRB) cell viability assay was conducted according to Skehan 1990 J Natl Canc Inst 82, 1107-1112.
(§2) Data were expressed as a percentage inhibition of the control, measured in the absence of inhibitor, as follows: — % inhibition=100−((S^i/S^o)×100) where S^i is the signal in the presence of inhibitor and S^o is the signal in the presence of DMSO.
(§3) IC50 values were determined by non-linear regression analysis, after fitting the results of eight data points to the equation for sigmoidal dose response with variable slope (% activity against log concentration of compound), using Graphpad Prism software.

U937 cell line = assay: Cell inhibition assay (SRB cell viability), U937; conditions: Homo sapiens, U-937, IC50 range class, 72 h, read-out: Inhibitor Activity vs U937 cell line
Method: as §1, §2, §3

HCT 116 cell line = assay: Cell inhibition assay (SRB cell viability), HCT 116; conditions: Homo sapiens, IC50 range class, 72 h, read-out: Inhibitor Activity vs HCT 116 cell line
Method: as §1, §2, §3

SMILES: COc1cc2c(Oc3ccc(CC(=O)Nc4ccc(F)cc4)cc3)ccnc2cc1OCC[C@H](N)C(=O)OC1CCCC1 [Example 86, (S)-2-Amino-4-(4-{4-[(4-fluoro-phenylcarbamoyl)-methyl]-phenoxy}-6-methoxy-quinolin-7-yloxy)-butyric acid cyclopentyl ester]
- IC50 (HUT cell line): < 1000 nM
- IC50 (U937 cell line): < 1000 nM
- IC50 (HCT 116 cell line): < 1000 nM

SMILES: COc1cc2c(Oc3ccc(CC(=O)c4ccccc4)cc3)ccnc2cc1OCC[C@H](N)C(=O)OC1CCCC1 [Example 140, (S)-2-Amino-4-{6-methoxy-4-[4-(2-oxo-2-phenyl-ethyl)-phenoxy]-quinolin-7-yloxy}-butyric acid cyclopentyl ester]
- IC50 (HUT cell line): < 1000 nM
- IC50 (U937 cell line): < 1000 nM
- IC50 (HCT 116 cell line): 1000 to 5000 nM

SMILES: COc1cc2c(Oc3ccc(CC(=O)Nc4ccccc4)cc3)ccnc2cc1OCC[C@H](N)C(=O)OC1CCCC1 [Example 80, (S)-2-Amino-4-[6-methoxy-4-(4-phenylcarbamoylmethyl-phenoxy)-quinolin-7-yloxy]-butyric acid cyclopentyl ester]
- IC50 (HUT cell line): < 1000 nM
- IC50 (U937 cell line): < 1000 nM
- IC50 (HCT 116 cell line): < 1000 nM

SMILES: COc1cc2c(Oc3ccc(NC(=O)c4ccccc4F)cc3)ccnc2cc1OCC[C@H](N)C(=O)OC1CCCC1 [Example 61, (S)-2-Amino-4-{4-[4-(2-fluoro-benzoylamino)-phenoxy]-6-methoxy-quinolin-7-yloxy}-butyric acid cyclopentyl ester]
- IC50 (HUT cell line): < 1000 nM
- IC50 (U937 cell line): < 1000 nM
- IC50 (HCT 116 cell line): < 1000 nM

SMILES: COc1cc2c(Oc3ccc(NC(=O)Nc4ccc(C(F)(F)F)cc4)cc3F)ccnc2cc1OCC[C@@H](N)C(=O)OC1CCCC1 [Example 108, (R)-2-Amino-4-(4-{2-fluoro-4-[3-(4-trifluoromethyl-phenyl)-ureido]-phenoxy}-6-methoxy-quinolin-7-yloxy)-butyric acid cyclopentyl ester]
- IC50 (HUT cell line): < 1000 nM
- IC50 (U937 cell line): < 1000 nM
- IC50 (HCT 116 cell line): < 1000 nM

SMILES: COc1cc2c(Oc3ccc(NS(=O)(=O)c4ccccc4)cc3)ccnc2cc1OCC[C@H](N)C(=O)OC1CCCC1 [Example 73, (S)-2-Amino-4-[4-(4-benzenesulfonylamino-phenoxy)-6-methoxy-quinolin-7-yloxy]-butyric acid cyclopentyl ester]
- IC50 (HUT cell line): 1000 to 5000 nM
- IC50 (U937 cell line): 1000 to 5000 nM
- IC50 (HCT 116 cell line): > 5000 nM

SMILES: COc1cc2c(Nc3cnn(CC(=O)Nc4ccccc4)c3)ccnc2cc1OCC[C@H](N)C(=O)OC1CCCC1 [Example 22, (S)-2-Amino-4-[6-methoxy-4-(1-phenylcarbamoylmethyl-1H-pyrazol-4-ylamino)-quinolin-7-yloxy]-butyric acid cyclopentyl ester]
- IC50 (HUT cell line): > 5000 nM
- IC50 (U937 cell line): 1000 to 5000 nM
- IC50 (HCT 116 cell line): > 5000 nM

SMILES: COc1cc2c(Oc3ccc(CC(=O)Nc4ccc(C(F)(F)F)cc4)cc3)ccnc2cc1OCC[C@H](N)C(=O)OC1CCCC1 [Example 79, (S)-2-Amino-4-(6-methoxy-4-{4-[(4-trifluoromethyl-phenylcarbamoyl)-methyl]-phenoxy}-quinolin-7-yloxy)-butyric acid cyclopentyl ester]
- IC50 (HUT cell line): < 1000 nM
- IC50 (U937 cell line): < 1000 nM
- IC50 (HCT 116 cell line): < 1000 nM

SMILES: COc1cc2c(Oc3ccc(NC(=O)C4=C(C)c5ccccc5C4)cc3)ccnc2cc1OCC[C@H](N)C(=O)OC1CCCC1 [Example 72, (S)-2-Amino-4-(6-methoxy-4-{4-[(3-methyl-1H-indene-2-carbonyl)-amino]-phenoxy}-quinolin-7-yloxy)-butyric acid cyclopentyl ester]
- IC50 (HUT cell line): < 1000 nM
- IC50 (U937 cell line): < 1000 nM
- IC50 (HCT 116 cell line): < 1000 nM

SMILES: COc1cc2c(Oc3ccc(NC(=O)Nc4ccc(C(F)(F)F)cc4)cc3)ccnc2cc1OCC[C@@H](N)C(=O)OC1CCCC1 [Example 104, (R)-2-Amino-4-(6-methoxy-4-{4-[3-(4-trifluoromethyl-phenyl)-ureido]-phenoxy}-quinolin-7-yloxy)-butyric acid cyclopentyl ester]
- IC50 (HUT cell line): < 1000 nM
- IC50 (U937 cell line): < 1000 nM
- IC50 (HCT 116 cell line): < 1000 nM

SMILES: COc1cc2c(Oc3ccc(NC(=O)c4ccccc4)cc3)ccnc2cc1OCC[C@H](N)C(=O)OCc1ccccc1 [Example 52, (S)-2-Amino-4-[4-(4-benzoylamino-phenoxy)-6-methoxy-quinolin-7-yloxy]-butyric acid benzyl ester]
- IC50 (HUT cell line): < 1000 nM
- IC50 (U937 cell line): < 1000 nM
- IC50 (HCT 116 cell line): < 1000 nM

SMILES: COc1cc2c(Oc3ccc(NC(=O)c4ccccc4)cc3)ccnc2cc1OCC1CCN(CC[C@H](N)C(=O)OC2CCCC2)CC1 [Example 136, (S)-2-Amino-4-{4-[4-(4-benzoylamino-phenoxy)-6-methoxy-quinolin-7-yloxymethyl]-piperidin-1-yl}-butyric acid cyclopentyl ester]
- IC50 (HUT cell line): < 1000 nM
- IC50 (U937 cell line): < 1000 nM
- IC50 (HCT 116 cell line): < 1000 nM

SMILES: COc1cc2c(Oc3ccc(NC(=O)c4ccccc4)cn3)ccnc2cc1OCC[C@H](N)C(=O)OC1CCCC1 [Example 134]
- IC50 (HUT cell line): < 1000 nM
- IC50 (U937 cell line): < 1000 nM
- IC50 (HCT 116 cell line): < 1000 nM

SMILES: COc1cc2c(Oc3ccc(NCc4ccccc4)cc3)ccnc2cc1OCC[C@H](N)C(=O)OC1CCCC1 [Example 138, (S)-2-Amino-4-[4-(4-benzylamino-phenoxy)-6-methoxy-quinolin-7-yloxy]-butyric acid cyclopentyl ester]
- IC50 (HUT cell line): < 1000 nM
- IC50 (U937 cell line): < 1000 nM
- IC50 (HCT 116 cell line): 1000 to 5000 nM

SMILES: COc1cc2c(Oc3ccc(NC(=O)c4ccccc4)c(F)c3)ccnc2cc1OCC[C@H](N)C(=O)OC1CCCC1 [Example 130, (S)-2-Amino-4-[4-(4-benzoylamino-3-fluoro-phenoxy)-6-methoxy-quinolin-7-yloxy]-butyric acid cyclopentyl ester]
- IC50 (HUT cell line): < 1000 nM
- IC50 (U937 cell line): < 1000 nM
- IC50 (HCT 116 cell line): < 1000 nM

SMILES: COc1ccc(Oc2ccnc3cc(OCC[C@H](N)C(=O)OC4CCCC4)c(OC)cc23)cc1 [Example 9, (S)-2-Amino-4-[6-methoxy-4-(4-methoxy-phenoxy)-quinolin-7-yloxy]-butyric acid cyclopentyl ester]
- IC50 (HUT cell line): > 5000 nM
- IC50 (U937 cell line): 1000 to 5000 nM
- IC50 (HCT 116 cell line): > 5000 nM

SMILES: COc1cc2c(Nc3cnn(CC(=O)Nc4cccc(F)c4)c3)ccnc2cc1OCC[C@H](N)C(=O)OC1CCCC1 [Example 24, (S)-2-Amino-4-(4-{1-[(3-fluoro-phenylcarbamoyl)-methyl]-1H-pyrazol-4-ylamino}-6-methoxy-quinolin-7-yloxy)-butyric acid cyclopentyl ester]
- IC50 (HUT cell line): > 5000 nM
- IC50 (U937 cell line): > 5000 nM
- IC50 (HCT 116 cell line): > 5000 nM

SMILES: COc1cc2c(Oc3ccc(NC(=O)c4ccc(C(F)(F)F)cc4)cc3F)ccnc2cc1OCC[C@H](N)C(=O)OC1CCCC1 [Example 127, (S)-2-Amino-4-{4-[2-fluoro-4-(4-trifluoromethyl-benzoylamino)-phenoxy]-6-methoxy-quinolin-7-yloxy}-butyric acid cyclopentyl ester]
- IC50 (HUT cell line): < 1000 nM
- IC50 (U937 cell line): < 1000 nM
- IC50 (HCT 116 cell line): < 1000 nM

SMILES: CCOC(=O)[C@@H](N)CCOc1cc2nccc(Oc3ccc(NC(=O)c4ccccc4)cc3)c2cc1OC [Example 51, (S)-2-Amino-4-[4-(4-benzoylamino-phenoxy)-6-methoxy-quinolin-7-yloxy]-butyric acid Ethyl ester]
- IC50 (HUT cell line): < 1000 nM
- IC50 (U937 cell line): < 1000 nM
- IC50 (HCT 116 cell line): < 1000 nM

SMILES: COc1cc2c(Oc3ccc4cccnc4c3)ccnc2cc1OCC[C@H](N)C(=O)OC1CCCC1 [Example 14, (S)-2-Amino-4-[6-methoxy-4-(quinolin-7-yloxy)-quinolin-7-yloxy]-butyric acid cyclopentyl ester]
- IC50 (HUT cell line): 1000 to 5000 nM
- IC50 (U937 cell line): < 1000 nM
- IC50 (HCT 116 cell line): 1000 to 5000 nM

SMILES: COc1cc2c(Oc3ccc(NC(=O)c4ccc(C(F)(F)F)cc4)cc3)ccnc2cc1OCC[C@@H](N)C(=O)OC1CCCC1 [Example 103, (R)-2-Amino-4-{6-methoxy-4-[4-(4-trifluoromethyl-benzoylamino)-phenoxy]-quinolin-7-yloxy}-butyric acid cyclopentyl ester]
- IC50 (HUT cell line): < 1000 nM
- IC50 (U937 cell line): < 1000 nM
- IC50 (HCT 116 cell line): < 1000 nM

SMILES: COc1cc2c(Oc3ccc(CC(=O)Nc4ccccc4F)cc3)ccnc2cc1OCC[C@H](N)C(=O)OC1CCCC1 [Example 82, (S)-2-Amino-4-(4-{4-[(2-fluoro-phenylcarbamoyl)-methyl]-phenoxy}-6-methoxy-quinolin-7-yloxy)-butyric acid cyclopentyl ester]
- IC50 (HUT cell line): < 1000 nM
- IC50 (U937 cell line): < 1000 nM
- IC50 (HCT 116 cell line): < 1000 nM

SMILES: COc1cc2c(Oc3ccc(-c4noc(-c5ccccc5)n4)cc3)ccnc2cc1OCC[C@H](N)C(=O)OC1CCCC1 [Example 92, (S)-2-Amino-4-{6-methoxy-4-[4-(5-phenyl-[1,2,4]oxadiazol-3-yl)-phenoxy]-quinolin-7-yloxy}-butyric acid cyclopentyl ester]
- IC50 (HUT cell line): > 5000 nM
- IC50 (U937 cell line): > 5000 nM
- IC50 (HCT 116 cell line): > 5000 nM

SMILES: COc1cc2c(Oc3cccc(F)c3)ccnc2cc1OCC[C@H](N)C(=O)OC1CCCC1 [Example 5, (S)-2-Amino-4-[4-(3-fluoro-phenoxy)-6-methoxy-quinolin-7-yloxy]-butyric acid cyclopentyl ester]
- IC50 (HUT cell line): 1000 to 5000 nM
- IC50 (U937 cell line): 1000 to 5000 nM
- IC50 (HCT 116 cell line): > 5000 nM

SMILES: COc1cc2c(Nc3cnc(NC(=O)c4ccccc4)nc3)ccnc2cc1OCC[C@H](N)C(=O)OC1CCCC1 [Example 25, (S)-2-Amino-4-[4-(2-benzoylamino-pyrimidin-5-ylamino)-6-methoxy-quinolin-7-yloxy]-butyric acid cyclopentyl ester]
- IC50 (HUT cell line): 1000 to 5000 nM
- IC50 (U937 cell line): 1000 to 5000 nM
- IC50 (HCT 116 cell line): 1000 to 5000 nM
